From patent US20220323406A1, “METHODS AND COMPOSITIONS FOR DIFFERENTIATING STEM CELLS” (Massachusetts Institute of Technology, priority 2019, published 2022)

Experiments:
ENR+CD organoids = experiment: Primary screen: ATP (CellTiter-Glo 3D, CTG) cell number/viability, 2.5-D 384-well ENR+CD organoids; conditions: primary screen; for Z.CTG: standard z score;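 for all read-outs here: compounds given at plating and again on day 3 over a 6-day differentiation from ENR+CV stem-cell-enriched precursors, ATP measured on day 6, plate median as control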
[1] = system: ENR+CD organoids (ISC to Paneth cell differentiation); experiment: Primary screen: CCh-stimulated lysozyme secretion LYZ.S, 2.5-D 384-well ENR+CD organoid differentiation; type: cell-based, mouse; conditions: primary screen
Text: (§1) High-throughput screening.

[2] = system: ENR+CD organoids (ISC to Paneth cell differentiation); experiment: Primary screen: basal (non-stimulated) lysozyme secretion LYZ.NS, 2.5-D 384-well ENR+CD organoid differentiation; type: cell-based, mouse; conditions: primary screen; for Z.LYZ.NS: standard z score
Text: as §1

[3] = dose 0.08 uM, FC relative to plate median
[4] = dose 0.40 uM, FC relative to plate median
[5] = dose 2.00 uM, FC relative to plate median
[6] = dose 10.00 uM, FC relative to plate median
[7] = dose 0.08 uM, FC vs plate median
[8] = dose 0.40 uM, FC vs plate median
[9] = dose 2.00 uM, FC vs plate median
[10] = dose 10.00 uM, FC vs plate median

## COc1cc(-n2c(=S)[nH]c3ccccc3c2=O)c(Cl)cc1Cl [Mdivi-1]
ENR+CD organoids; dose 0.08 uM
  Dose.FC.CTG (log2 fold change): 0.008
  Z.CTG (standard z score): 0.019
ENR+CD organoids; dose 0.40 uM
  Dose.FC.CTG (log2 fold change): −0.031
  Z.CTG (standard z score): −0.074
ENR+CD organoids; dose 2.00 uM
  Dose.FC.CTG (log2 fold change): −0.112
  Z.CTG (standard z score): −0.267
ENR+CD organoids; dose 10.00 uM
  Dose.FC.CTG (log2 fold change): −0.527
  Z.CTG (standard z score): −1.259
[1]; dose 0.08 uM
  Dose.FC.LYZ.S (log2 fold change): 0.079
[1]; dose 0.40 uM
  Dose.FC.LYZ.S (log2 fold change): 0.030
[1]; dose 2.00 uM
  Dose.FC.LYZ.S (log2 fold change): −0.048
[1]; dose 10.00 uM
  Dose.FC.LYZ.S (log2 fold change): −0.411
[2]; dose 0.08 uM
  Dose.FC.LYZ.NS (log2 fold change): 0.177
  Z.LYZ.NS (standard z score): 1.537
[2]; dose 0.40 uM
  Dose.FC.LYZ.NS (log2 fold change): 0.156
  Z.LYZ.NS (standard z score): 1.358
[2]; dose 2.00 uM
  Dose.FC.LYZ.NS (log2 fold change): −0.022
  Z.LYZ.NS (standard z score): −0.194
[2]; dose 10.00 uM
  Dose.FC.LYZ.NS (log2 fold change): −0.268
  Z.LYZ.NS (standard z score): −2.333

## CO[C@H]1C[C@@H]2CC[C@@H](C)[C@@](O)(O2)C(=O)C(=O)N2CCCC[C@H]2C(=O)O[C@H]([C@H](C)C[C@@H]2CC[C@@H](OP(C)(C)=O)[C@H](OC)C2)CC(=O)[C@H](C)/C=C(\C)[C@@H](O)[C@@H](OC)C(=O)[C@H](C)C[C@H](C)/C=C/C=C/C=C/1C [Ridaforolimus (Deforolimus, MK-8669)]
ENR+CD organoids; [3]
  Dose.FC.CTG: 0.423 log2 fold change
ENR+CD organoids; dose 0.08 uM
  Z.CTG: 1.011
ENR+CD organoids; [4]
  Dose.FC.CTG: 0.066 log2 fold change
ENR+CD organoids; dose 0.40 uM
  Z.CTG: 0.157
ENR+CD organoids; [5]
  Dose.FC.CTG: 0.276 log2 fold change
ENR+CD organoids; dose 2.00 uM
  Z.CTG: 0.659
ENR+CD organoids; [6]
  Dose.FC.CTG: 0.211 log2 fold change
ENR+CD organoids; dose 10.00 uM
  Z.CTG: 0.505
[1]; [3]
  Dose.FC.LYZ.S: 0.050 log2 fold change
[1]; [4]
  Dose.FC.LYZ.S: 0.069 log2 fold change
[1]; [5]
  Dose.FC.LYZ.S: 0.019 log2 fold change
[1]; [6]
  Dose.FC.LYZ.S: 0.039 log2 fold change
[2]; [3]
  Dose.FC.LYZ.NS: 0.005 log2 fold change
[2]; dose 0.08 uM
  Z.LYZ.NS: 0.041
[2]; [4]
  Dose.FC.LYZ.NS: 0.116 log2 fold change
[2]; dose 0.40 uM
  Z.LYZ.NS: 1.012
[2]; [5]
  Dose.FC.LYZ.NS: 0.074 log2 fold change
[2]; dose 2.00 uM
  Z.LYZ.NS: 0.646
[2]; [6]
  Dose.FC.LYZ.NS: 0.027 log2 fold change
[2]; dose 10.00 uM
  Z.LYZ.NS: 0.237

## O=C(Nc1ccccc1-c1cn2c(CN3CCNCC3)csc2n1)c1cnc2ccccc2n1 [SRT1720]
ENR+CD organoids; [3]
  Dose.FC.CTG: 0.529 log2 fold change
ENR+CD organoids; dose 0.08 uM
  Z.CTG: 1.264
ENR+CD organoids; [4]
  Dose.FC.CTG: 0.394 log2 fold change
ENR+CD organoids; dose 0.40 uM
  Z.CTG: 0.940
ENR+CD organoids; [5]
  Dose.FC.CTG: 0.339 log2 fold change
ENR+CD organoids; dose 2.00 uM
  Z.CTG: 0.810
ENR+CD organoids; [6]
  Dose.FC.CTG: −1.016 log2 fold change
ENR+CD organoids; dose 10.00 uM
  Z.CTG: −2.427
[1]; [3]
  Dose.FC.LYZ.S: 0.190 log2 fold change
[1]; [4]
  Dose.FC.LYZ.S: 0.099 log2 fold change
[1]; [5]
  Dose.FC.LYZ.S: 0.051 log2 fold change
[1]; [6]
  Dose.FC.LYZ.S: −0.193 log2 fold change
[2]; [3]
  Dose.FC.LYZ.NS: 0.172 log2 fold change
[2]; dose 0.08 uM
  Z.LYZ.NS: 1.495
[2]; [4]
  Dose.FC.LYZ.NS: 0.112 log2 fold change
[2]; dose 0.40 uM
  Z.LYZ.NS: 0.972
[2]; [5]
  Dose.FC.LYZ.NS: 0.070 log2 fold change
[2]; dose 2.00 uM
  Z.LYZ.NS: 0.613
[2]; [6]
  Dose.FC.LYZ.NS: −0.104 log2 fold change
[2]; dose 10.00 uM
  Z.LYZ.NS: −0.906

## COc1cc(OC)c(NC(=O)Nc2cc(C)on2)cc1Cl [PNU-120596]
ENR+CD organoids; dose 0.08 uM
  Z.CTG: −0.188
ENR+CD organoids; dose 0.40 uM
  Z.CTG: 0.204
ENR+CD organoids; dose 2.00 uM
  Z.CTG: 0.271
ENR+CD organoids; dose 10.00 uM
  Z.CTG: 0.330
ENR+CD organoids; [7]
  Dose.FC.CTG: −0.079 log2 fold change
ENR+CD organoids; [8]
  Dose.FC.CTG: 0.085 log2 fold change
ENR+CD organoids; [9]
  Dose.FC.CTG: 0.114 log2 fold change
ENR+CD organoids; [10]
  Dose.FC.CTG: 0.138 log2 fold change
[1]; [7]
  Dose.FC.LYZ.S: 0.058 log2 fold change
[1]; [8]
  Dose.FC.LYZ.S: 0.081 log2 fold change
[1]; [9]
  Dose.FC.LYZ.S: 0.065 log2 fold change
[1]; [10]
  Dose.FC.LYZ.S: −0.049 log2 fold change
[2]; dose 0.08 uM
  Z.LYZ.NS: 0.944
[2]; dose 0.40 uM
  Z.LYZ.NS: −0.098
[2]; dose 2.00 uM
  Z.LYZ.NS: 0.594
[2]; dose 10.00 uM
  Z.LYZ.NS: −0.525
[2]; [7]
  Dose.FC.LYZ.NS: 0.108 log2 fold change
[2]; [8]
  Dose.FC.LYZ.NS: −0.011 log2 fold change
[2]; [9]
  Dose.FC.LYZ.NS: 0.068 log2 fold change
[2]; [10]
  Dose.FC.LYZ.NS: −0.060 log2 fold change

## C=CC(=O)Nc1cccc(Nc2nc(Nc3ccc(OCCOC)cc3)ncc2F)c1 [AVL-292]
ENR+CD organoids; dose 0.08 uM
  Dose.FC.CTG: 0.217 log2 fold change
  Z.CTG (standard z score): 0.518
ENR+CD organoids; dose 0.40 uM
  Dose.FC.CTG: 0.057 log2 fold change
  Z.CTG (standard z score): 0.135
ENR+CD organoids; dose 2.00 uM
  Dose.FC.CTG: −0.058 log2 fold change
  Z.CTG (standard z score): −0.138
ENR+CD organoids; dose 10.00 uM
  Dose.FC.CTG: −0.778 log2 fold change
  Z.CTG (standard z score): −1.859
[1]; dose 0.08 uM
  Dose.FC.LYZ.S: 0.235 log2 fold change
[1]; dose 0.40 uM
  Dose.FC.LYZ.S: 0.106 log2 fold change
[1]; dose 2.00 uM
  Dose.FC.LYZ.S: −0.206 log2 fold change
[1]; dose 10.00 uM
  Dose.FC.LYZ.S: −0.376 log2 fold change
[2]; dose 0.08 uM
  Dose.FC.LYZ.NS: 0.095 log2 fold change
  Z.LYZ.NS (standard z score): 0.831
[2]; dose 0.40 uM
  Dose.FC.LYZ.NS: 0.052 log2 fold change
  Z.LYZ.NS (standard z score): 0.451
[2]; dose 2.00 uM
  Dose.FC.LYZ.NS: −0.112 log2 fold change
  Z.LYZ.NS (standard z score): −0.979
[2]; dose 10.00 uM
  Dose.FC.LYZ.NS: −0.213 log2 fold change
  Z.LYZ.NS (standard z score): −1.858
